From patent publication US10676429B2, “Sulfamoyl-arylamides and the use thereof as medicaments for the treatment of hepatitis B” (priority 2012, dated 2020)

Columns and labels:
HBV [1] = assay: Anti-HBV activity in stable transfected HepG2.2.15 cell line (HBV DNA from secreted virions, realtime PCR); assay type: cell-based; details: Hepatitis B virus, HepG2.2.15, 144 h
[2] = Cytotoxicity in HepG2 cells, 4 days, Resazurin assay; details: human
HBV [3] = assay: Anti-HBV activity in HepG2.117 cell line (Tet-off, intracellular HBV DNA, realtime PCR); assay type: cell-based; details: Hepatitis B virus, HepG2.117, 72 h
[4] = HepG2.2.15 cells, 6 days of treatment, secreted virion HBV DNA, read-out: HepG2 2.15 EC50
[5] = HepG2.117 cells, 3 days of treatment, intracellular HBV DNA, read-out: HepG2 117 EC50

Row | Structure (SMILES) | EC50 (HBV [1]; [4]) [µM] | CC50 at 4 days ([2]; HepG2 cells) [µM] | EC50 (HBV [3]; [5]) [µM] | EC50 (HBV [1]; read-out: HepG2 2.15 EC50 (μM)) [µM] | CC50 at 4 days [2] [µM] | EC50 (HBV [3]; read-out: HepG2 117 EC50 (μM)) [µM]
1 | Cc1ccc(NC(=O)c2cccc(S(=O)(=O)NC3CCCC3)c2)cc1F [Compound 13] | 1.99 | 13.8 | 15.3 |  |  | 
2 | CC1(NS(=O)(=O)c2cccc(C(=O)Nc3ccc(F)c(Br)c3)c2)COC1 [Compound 160, N-(3-bromo-4-fluoro-phenyl)-3-[(3-methyloxetan-3-yl)sulfamoyl]benzamide] | 0.2 | > 25 | 0.69 |  |  | 
3 | CC1(NS(=O)(=O)c2cccc(C(=O)Nc3ccc(F)c(CF)c3)c2)COC1 [Compound 127] | 0.23 | > 25 | 0.58 |  |  | 
4 | Cc1cc(NC(=O)c2cccc(S(=O)(=O)N[C@@H](C)C(C)C)c2)ccc1F [Compound 151] | 0.66 | > 25 | 2.74 |  |  | 
5 | Cc1ccc(S(=O)(=O)NC2(C)COC2)c(F)c1C(=O)Nc1ccc(F)c(C#N)c1 [Compound 191] | 0.33 | > 25 | 0.36 |  |  | 
6 | COc1ccc(NC(=O)c2cccc(S(=O)(=O)NC(C)C)c2)cc1F [Compound 114] | 1.35 | > 25 | 3.15 |  |  | 
7 | Cc1cc(NC(=O)c2cccc(S(=O)(=O)N[C@H]3CCOC3)c2F)ccc1F [Compound 112] | 0.03 | > 25 | 0.14 |  |  | 
8 | O=C(Nc1ccccc1)c1cccc(S(=O)(=O)NC2CC2)c1 [Compound 55] | 3.06 | > 100 | 3.26 |  |  | 
9 | O=C(Nc1ccc(F)cc1)c1cccc(S(=O)(=O)N2CCCC2)c1 [Compound 36] | 4.53 | 97 | 3.03 |  |  | 
10 | Cc1cc(F)cc(NC(=O)c2cccc(S(=O)(=O)NC3CCCC3)c2)c1 [Compound 12] | 0.11 | 13.3 | 1.51 |  |  | 
11 | Cc1cc(NC(=O)c2cccc(S(=O)(=O)N[C@H](C)[C@@H](O)c3ccccc3)c2)ccc1F [Compound 144] | 0.13 | > 25 | 0.24 |  |  | 
12 | Cc1cc(NC(=O)c2cccc(S(=O)(=O)NC(C)C)c2)cc(F)c1F [Compound 99] | 0.09 | > 25 | 0.46 |  |  | 
13 | CN(C)S(=O)(=O)c1ccc(F)c(C(=O)Nc2ccccc2)c1 [Compound 49] | 13.4 | > 100 | 9.15 |  |  | 
14 | O=C(Nc1ccc(F)cc1)c1cccc(S(=O)(=O)NC(=O)C2CCCCC2)c1 [Compound 56] | 1.64 | > 100 | 5.45 |  |  | 
15 | Cc1cc(NC(=O)c2ccc(F)c(S(=O)(=O)N[C@H]3CCOC3)c2)ccc1F [Compound 239] | 0.48 | > 25 | 0.53 |  |  | 
16 | Cc1cc(NC(=O)c2cccc(S(=O)(=O)NCCC3CC3)c2)ccc1F [Compound 170] | 0.26 | > 25 | 0.45 |  |  | 
17 | Cc1cc(NC(=O)c2cccc(S(=O)(=O)N3CC4(COC4)C3)c2)ccc1F [Compound 135] | 0.56 | > 25 | 0.36 |  |  | 
18 | Cc1cc(NC(=O)c2cccc(S(=O)(=O)N[C@@H]3c4ccccc4C[C@H]3O)c2)ccc1F [Compound 175] | 0.23 | > 25 | 0.15 |  |  | 
19 | Cc1cc(NC(=O)c2cccc(S(=O)(=O)N[C@@H]3c4ccccc4C[C@@H]3O)c2)ccc1F [Compound 136] | 0.47 | > 25 | 0.81 |  |  | 
20 | CCC1(NS(=O)(=O)c2cccc(C(=O)Nc3ccc(F)cc3)c2)COC1 [Compound 89] | 0.54 | > 25 | 0.72 |  |  | 
21 | O=C(Nc1cccc(C(F)(F)F)c1)c1cccc(S(=O)(=O)NC2CCCC2)c1 [Compound 81] | 0.24 | 15.3 | 0.81 |  |  | 
22 | Cc1cc(NC(=O)c2cccc(S(=O)(=O)N3CCC34COC4)c2)ccc1F [Compound 147] | 0.26 | > 25 | 0.15 |  |  | 
23 | Cc1cccc(NC(=O)c2cc(S(=O)(=O)N3CCCCC3)c(Cl)cc2Cl)c1 [Compound 17] | 0.56 | > 100 | 2.65 |  |  | 
24 | N#Cc1ccc(NC(=O)c2cccc(S(=O)(=O)NC3CCCC3)c2)cc1 [Compound 80] | 8.4 | > 25 | 17.9 |  |  | 
25 | O=C(Nc1ccccc1)c1ccc(S(=O)(=O)N2CCCCC2)o1 [Compound 58] | 14.6 | 62.5 | 19.9 |  |  | 
26 | Cc1cc(NC(=O)c2cccc(S(=O)(=O)N[C@@H]3CCc4ccccc4[C@H]3O)c2)ccc1F [Compound 178] | 0.75 | > 25 | 2.54 |  |  | 
27 | Cc1cc(NC(=O)c2cccc(S(=O)(=O)N[C@H]3CCOC3)c2)ccc1F [Compound 72] | 0.12 | > 25 | 0.37 |  |  | 
28 | Cc1cc(NC(=O)c2cccc(S(=O)(=O)NC3CCC(O)C3)c2)ccc1F (stereo not drawn) [Compound 145] | 0.22 | > 25 | 0.27 |  |  | 

Row | Structure (SMILES) | EC50 (HBV [1]; [4]) [µM] | CC50 at 4 days ([2]; HepG2 cells) [µM] | EC50 (HBV [3]; [5]) [µM] | EC50 (HBV [1]; read-out: HepG2 2.15 EC50 (μM)) [µM] | CC50 at 4 days [2] [µM] | EC50 (HBV [3]; read-out: HepG2 117 EC50 (μM)) [µM]
29 | COc1cc(NC(=O)c2cccc(S(=O)(=O)NC3(C)COC3)c2)ccc1F [Compound 109] | 1.23 | > 25 | 2.53 |  |  | 
30 | CC1(NS(=O)(=O)c2cccc(C(=O)Nc3ccc(F)c(C(F)F)c3)c2F)COC1 [Compound 218] | 0.12 | > 25 | 0.1 |  |  | 
31 | Cc1cc(NC(=O)c2cc(Cl)cc(S(=O)(=O)N[C@H]3CCOC3)c2F)ccc1F [Compound 123] | 0.15 | > 25 | 0.3 |  |  | 
32 | Cc1cc(NC(=O)c2cccc(S(=O)(=O)NC3CCN(C(=O)OC(C)(C)C)C3)c2)ccc1F (stereo not drawn) [Compound 156] | 0.19 | > 25 | 0.21 |  |  | 
33 | CC(C)NS(=O)(=O)c1cccc(C(=O)Nc2ccc(F)c(C(F)(F)F)c2)c1 [Compound 74] | 0.64 | > 25 | 0.53 |  |  | 
34 | CC1(NS(=O)(=O)c2ccc(Cl)c(C(=O)Nc3ccc(F)c(C(F)F)c3)c2)COC1 [Compound 235] | 0.83 | > 25 | 0.33 |  |  | 
35 | CC(C)NS(=O)(=O)c1cccc(C(=O)Nc2ccc(F)c(C3CC3)c2)c1 [Compound 84] | 0.32 | > 25 | 0.91 |  |  | 
36 | Cc1cc(NC(=O)c2cccc(S(=O)(=O)N3CC4(CCOC4)C3)c2)ccc1F [Compound 146] | 0.45 | > 25 | 0.42 |  |  | 
37 | Cc1cc(NC(=O)c2cccc(S(=O)(=O)NC(C)c3ccncc3)c2)ccc1F (stereo not drawn) [Compound 161] | 0.2 | > 25 | 0.35 |  |  | 
38 | Cc1cc(NC(=O)c2cccc(S(=O)(=O)N[C@@H](C)C(F)(F)F)c2)ccc1F [Compound 226] | 0.27 | > 25 | 1.9 |  |  | 
39 | Cc1cc(NC(=O)c2cccc(S(=O)(=O)N[C@H]3CCCC[C@@H]3O)c2)ccc1F [Compound 131] | 2.63 | > 25 | 1.74 |  |  | 
40 | C#Cc1cc(NC(=O)c2cccc(S(=O)(=O)NC(C)C)c2)ccc1F [Compound 91] | 0.53 | > 25 | 0.77 |  |  | 
41 | Cc1ccc(S(=O)(=O)NC2(C)COC2)c(F)c1C(=O)Nc1ccc(F)c(Cl)c1 [Compound 195] | 0.27 | > 25 | 0.18 |  |  | 
42 | CCC1(NS(=O)(=O)c2cccc(C(=O)Nc3ccc(F)cc3)c2)CC1 [Compound 87] | 0.41 | > 25 | 0.89 |  |  | 
43 | CC(C)NS(=O)(=O)c1cccc(C(=O)Nc2ccc(F)c(F)c2)c1 [Compound 88] | 0.21 | > 25 | 0.4 |  |  | 
44 | O=C(Nc1ccc(Cl)cc1)c1cc(S(=O)(=O)NC2CCCC2)ccc1F [Compound 51] | 3.98 | 20.8 | 9.44 |  |  | 
45 | O=C(Nc1ccc(C(F)(F)F)cc1)c1cc(S(=O)(=O)NC2CCCC2)ccc1F [Compound 50] | 45.9 | 11.3 | 15.8 |  |  | 
46 | O=C(Nc1ccccc1)c1c[nH]c(S(=O)(=O)NC2CCCCC2)n1 [Compound 63] | 9.94 | > 100 | 21.1 |  |  | 
47 | CC1(NS(=O)(=O)c2cccc(C(=O)Nc3ccc(F)c(CO)c3)c2)COC1 [Compound 111] | 4.48 | > 25 | 1.48 |  |  | 
48 | O=C(Nc1ccc(F)c(C(F)F)c1)c1cccc(S(=O)(=O)N[C@H]2CCOC2)c1 [Compound 102] | 0.18 | > 25 | 0.33 |  |  | 
49 | Cc1cc(NC(=O)c2cccc(S(=O)(=O)NC(C)C3CCN(C)CC3)c2)ccc1F (stereo not drawn) [Compound 164] | 3.71 | > 25 | 0.97 |  |  | 
50 | Cc1cc(NC(=O)c2cccc(S(=O)(=O)NC(C)CN3CCOCC3)c2)ccc1F (stereo not drawn) [Compound 117] | 0.88 | > 25 | 0.5 |  |  | 
51 | Cc1cc(NC(=O)c2cc(F)cc(S(=O)(=O)N[C@H]3CCOC3)c2)ccc1F [Compound 241] | 0.38 | > 25 | 1.79 |  |  | 
52 | O=C(Nc1ccc(F)cc1)c1cc(S(=O)(=O)N2CCCCC2)cs1 [Compound 61] |  |  |  | 7.07 | 35.7 | 15.4
53 | Cc1cc(NC(=O)c2cccc(S(=O)(=O)NC(C)Cc3ccncc3)c2)ccc1F (stereo not drawn) [Compound 224] | 0.16 | > 25 | 0.76 |  |  | 
54 | Cc1cc(C#N)cc(NC(=O)c2cccc(S(=O)(=O)NC3CCCC3)c2)c1 [Compound 82] | 1.2 | > 25 | 3.13 |  |  | 
55 | CCC1(NS(=O)(=O)c2cccc(C(=O)Nc3ccc(F)c(C)c3)c2)COC1 [Compound 93] | 0.07 | > 25 | 0.22 |  |  | 
